Measurements: US11000635B2, “Antimicrobial compositions comprising minocycline and oxidized cellulose” (priority 2017, dated 2021)
Values after ≈ are worked out from the molar mass of the structure shown. “Also recorded” adds a separate entry of the source.

What was measured:
S. aureus [1] = assay: Tertiary stage: antimicrobial activity of antibiotic-impregnated ORC extracts (ET50, MIC); type: cell-based, Staphylococcus aureus; settings: for Antibiotic-impregnated ORC (tertiary) MIC: single antibiotic impregnated onto ORC pad; for Result (ET50): ORC pad
Description: The maximum OD is determined by bacterial growth in MHBII without the chemical.
Solutions comprising different concentrations of antibiotics to be tested were prepared in methanol.
Blank ORC pads of dimensions 1×1.5 inch, weighing between 65-75 mg (70 mg on average), in duplicate, were immersed in the antibiotic solutions and then dried using a rotary evaporator to provide “antibiotic-impregnated ORC pads”.
15 ml test tubes containing 3 ml of sterile PBS were prepared, and the antibiotic-impregnated ORC pads were immersed in the tubes and incubated for 3-5 hours at ambient temperature on a roller mixer (Stuart, Cat #SRT9D).
Each of the above extracts was filtered out using a sterile 0.8/0.2 μm syringe filter into a clean 15 ml tube. These extraction fluids are referred to herein as “antibiotic-impregnated ORC extracts”.
Briefly, ORC patches weighing on average 70 mg each were impregnated with the selected antibiotic. Antibiotic-impregnated ORC extracts were prepared by immersion and incubation in 3 ml of sterile PBS for 3 hours at ambient temperature. The ORC was then removed and any remaining ORC particles were filtered out using a […] syringe filter. This extraction fluid was then diluted 10-fold into Muller Hinton growth medium containing bacteria. Bacterial growth was monitored every 20 min for a total of 18 hours according to optical density (OD) at 600 nm, using an ELISA reader.
Since the study included many possible combinations of two antibiotics, each with their own different concentration range, a matrix of possible antibiotic concentrations was designed, and ORC pads prepared accordingly (see Table 10). Since all the possible combinations could not be fitted into one 96 well plate, a series of MIC experiments were carried out.

[2] = test system: Staphylococcus aureus (S. aureus), Strain #6538; assay: Primary stage MIC measurement of antibiotic alone (2-fold dilutions, OD 600 nm growth curves); type: cell-based; settings: for MIC: Staphylococcus aureus, read-out: MIC values for S. aureus found in the present study (in-house primary MIC)
Description: An isolated colony of S. aureus bacteria was picked from afresh streak plate (no more than 1 week old). The colony was transferred into 3-4 ml of TSB and incubated overnight in an orbital shaker at 35° C.-37° C.
The following day, the turbidity of the actively-growing broth culture was adjusted with Calcium-adjusted Mueller Hinton broth II (MHBII) to be equivalent to that of a 0.5 McFarland standard (1×10^8 CFU/ml). The broth culture was maintained under ambient conditions prior to use.
No more than 15 minutes prior to use, the culture was further diluted 20 fold in MHBII to obtain a final 5×10^6 CFU/ml stock suspension.
The method used in this stage was based on the classic Minimum Inhibitory Concentration (MIC) measurements, as described by the Clinical and Laboratory Standards Institute (CLSI) document M07-A9: “Method for Dilution Antimicrobial Susceptibility Test for Bacteria that Grow Aerobically”. While classic MIC measurements require visual inspection of plates for bacterial growth after 18 hours, growth was monitored in the present study according to optical density (OD) at 600 nm, using an ELISA reader (MultiSkan™ FC ELISA reader, Thermo Fisher Scientific, Massachusetts, USA), thereby obtaining bacterial growth curves for tested antibiotic solutions.
A 96-well assay plate layout (Corning Cat #3596) was prepared as follows:
Columns 1 and 3-12: 100 μl of MHBII alone was added to each well.
[…]: 200 μl of a solution of antibiotic in MHBII at the highest concentration to be tested was added to each well.
A series of 2-fold dilutions was performed, wherein 100 μl of solution of antibiotic was withdrawn from each well of column 2, transferred to the corresponding well of column 3, and mixed.
The dilution was then repeated by transfer from column 3 to column 4, and so on, until column 11, when the 100 μl of solution of antibiotic withdrawn from each well of column 11 was discarded.
The plate was then incubated at 37° C. with shaking in the ELISA reader and the optical density at 600 nm was read every 20 minutes for a total of 18 hours.
The average OD reading obtained for each antibiotic concentration was calculated and plotted against time to obtain a growth curve.
The MIC was determined as the first antibiotic concentration at which […] by the end of the 18-hour period.

[3] = test system: Staphylococcus aureus (S. aureus), Strain #6538; assay: Secondary stage: antibiotic alone or blank ORC extracted in antibiotic, bacterial growth curves (ET50); type: cell-based; settings: presence of ORC pads (not impregnated), read-out: MIC upon addition of a small amount of ORC to the growth medium
[4] = test system: Staphylococcus aureus (S. aureus), Strain #6538; assay: as above; type: cell-based; settings: antibiotic solution with versus without ORC
Description: Blank ORC pads i.e. ORC pads which had not been impregnated with antibiotic (referred to herein as “blank ORC pads”), were subjected to extraction in a solution of antibiotic in PBS for three hours at ambient temperature.
Due to the acidity of ORC, which provides some antibiotic effect, the size of the pad used was small i.e. approximately 1×1.5 inch, weighing between 65-75 mg (70 mg on average) in order to prevent the ORC from affecting the final pH of the assay and therefore the growth of the bacteria.
15 ml tubes, each containing 3 ml of an antibiotic solution at a known concentration in sterile PBS, were prepared in duplicate. […]
The plate was incubated at 37° C. with shaking in the ELISA reader and the optical density at 600 nm was read every 20 minutes for a total of 18 hours.
The average and standard deviation for OD readings was calculated for each time point of the wells using Excel. […]
The average values were also entered into the GraphPad Prism program (GraphPad Software Inc., CA, USA) in order to calculate the Effective Time 50 (ET50) i.e. the time, in minutes, required for the antibiotic to induce a response halfway between the baseline and maximum, where the maximum is the bacterial growth in MHBII with PBS. This provides a quantifiable measure of the efficacy of the antibiotics tested and enables comparison of the various samples tested. […]

S. aureus [5] = settings: published values; cited from earlier work

In the case of `CCC[C@@H]1C[C@@H](C(=O)N[C@@H]([C@H]2O[C@H](SC)[C@H](O)[C@@H](O)[C@H]2O)[C@H](C)Cl)N(C)C1` [Clindamycin, clindamycin], the “Antibiotic-impregnated ORC (tertiary) MIC” value (from here on “Antibiotic-impregnated ORC”) (S. aureus [1]) is reported as 0.015 µg/mL, the “MIC as single antibiotic in the absence of ORC (first stage MIC results)” value (“MIC as single antibiotic in the absence” for short) [2] is reported as 0.062 µg/mL and the MIC ([2]; absence of ORC) is reported as 0.062 µg/mL (≈ 0.146 µM).

For `CN(C)c1ccc(O)c2c1C[C@H]1C[C@H]3[C@H](N(C)C)C(O)=C(C(N)=O)C(=O)[C@@]3(O)C(O)=C1C2=O` [Minocycline, minocycline], the “Result (ET50)” value (S. aureus [1]; 0.54 μg Minocycline + 0.00 μg Clindamycin per gr ORC) was 637.6 min, the “Result (ET50)” value (S. aureus [1]; 0.54 μg Minocycline + 0.00 μg Rifampin per gr ORC) was 585.4 min and the “Result (ET50)” value (S. aureus [1]; 1.08 μg Minocycline + 0.00 μg Clindamycin per gr ORC) was 1072 min. The “Result (ET50)” value (S. aureus [1]; 1.08 μg Minocycline + 0.00 μg Rifampin per gr ORC) was 799.9 min, the “Result (ET50)” value (S. aureus [1]; 2.16 μg Minocycline + 0.00 μg Clindamycin per gr ORC) was >2000 min and the “Result (ET50)” value (S. aureus [1]; 2.16 μg Minocycline + 0.00 μg Rifampin per gr ORC) was >2000 min. For the same compound, the “Result (ET50)” value (S. aureus [1]; 2.70 μg Minocycline + 0.00 μg Clindamycin per gr ORC) was >2000 min, the “Result (ET50)” value (S. aureus [1]; 2.70 μg Minocycline + 0.00 μg Rifampin per gr ORC) was >2000 min and the MIC (S. aureus [1]; Staphylococcus aureus, single antibiotic impregnated onto ORC, read-out: MIC of minocycline together with ORC, ORC impregnated with minocycline) was 0.0126 µg/mL. The “Minocycline concentration sufficient for growth inhibition of S. aureus in combination” value (S. aureus [1]; impregnated onto ORC together with rifampin or clindamycin) was 1.26 ng/mL, the “Antibiotic-impregnated ORC” value (S. aureus [1]) was 0.0126 µg/mL and the “Fold reduction of the MIC when impregnated onto ORC in combination with an additional antibiotic” value (S. aureus [1]; versus single antibiotic in the absence of ORC (first stage MIC)) was 200. The “MIC as single antibiotic in the absence” value [2] was 0.25 µg/mL, the MIC ([2]; absence of ORC) was 0.25 µg/mL (≈ 0.546 µM) and the MIC [3] was 0.05 µg/mL.

For `CO[C@H]1/C=C/O[C@@]2(C)Oc3c(C)c(O)c4c(O)c(c(/C=N/N5CCN(C)CC5)c(O)c4c3C2=O)NC(=O)/C(C)=C\C=C\[C@H](C)[C@H](O)[C@@H](C)[C@@H](O)[C@@H](C)[C@H](OC(C)=O)[C@@H]1C` [Rifampin, rifampin], the “Effect of addition of ORC on the antibiotic activity” value [4] was “ORC interferes with the antibiotic activity of rifampin; also recorded: impaired by ORC and MIC was increased”, the “Result (ET50)” value (S. aureus [1]; 0.00 μg Minocycline + 31.41 μg Rifampin per gr ORC) was 406.8 min and the “Result (ET50)” value (S. aureus [1]; 0.00 μg Minocycline + 62.82 μg Rifampin per gr ORC) was 442.3 min. For the same compound, the “Result (ET50)” value (S. aureus [1]; 0.00 μg Minocycline + 125.64 μg Rifampin per gr ORC) was 450.4 min, the “Result (ET50)” value (S. aureus [1]; 0.00 μg Minocycline + 157.05 μg Rifampin per gr ORC) was 418.1 min and the “Rifampin concentration sufficient for growth inhibition of S. aureus in combination” value (S. aureus [1]; impregnated onto ORC together with 1.26 ng/ml minocycline) was 366.5 ng/mL. The “Antibiotic-impregnated ORC” value (S. aureus [1]) was 0.733 µg/mL, the “Change of antimicrobial activity when impregnated onto the ORC pad” value (S. aureus [1]; versus first stage MIC) was “activity was impaired” and the “MIC as single antibiotic in the absence” value [2] was 0.015 µg/mL. The MIC ([2]; absence of ORC) was 0.015 µg/mL (≈ 0.0182 µM) and the “MIC values for S. aureus according to CLSI” value (S. aureus [5]) was 0.004 to 0.015 µg/mL.

In the case of Gentamycin [Gentamicin], the “Effect of addition of ORC on the antibiotic activity” value [4] is listed as “decreased antibiotic activity; also recorded: impaired by ORC and MIC was increased”, the “MIC values for S. aureus found in the present study (in-house primary MIC)” value ([2]; absence of ORC) is listed as 0.25 µg/mL and the “MIC values for S. aureus according to CLSI” value (S. aureus [5]) is listed as 0.12 to 1 µg/mL.
